We go through 11 compounds from EP0159881A2, “23-C-substituted mycaminosyl tylonolide” (ZAIDAN HOJIN BISEIBUTSU KAGAKU KENKYU KAI, priority 1984, dated 1985).

Values after ≈ are worked out from the molar mass of the structure shown. Where two headings read alike, the source gives them in different places.

What all share (assay): minimum inhibitory concentration (MIC), antimicrobial activity
Holding throughout (assay type): cell-based

One experiment has as its system B. Subtilis NRRL B-558. An excerpt:
(§1) Concerning the antimicrobial activity of the compounds of this invention of the formula (I), minimum effective inhibitory concentrations (MIC) of the compounds are shown in the following Table.

A further experiment has as its system Kl. pnueroniae PCI-602.
Text: as §1

The test system of the next experiment is M. luteus PCI 1001.
Text: as §1

For another experiment, the system named is Pseud. aeruginosa A3.
Text: as §1

Another experiment deals with Sal.entiritidis 1891.
Text: as §1

A further experiment has as its system Staph. aureus Smith.
Text: as §1

Where [1] appears, read: Bacillus subtilis, NRRLB558, read-out: MIC.
Setting [2] is: Micrococcus luteus, PCI1001, read-out: MIC.
[3] abbreviates: Pseudomonas aeruginosa, A3, Pseud. aeruginosa A3, read-out: MIC.
[4] abbreviates: Staphylococcus aureus, read-out: MIC.

A word on the MIC: it is the smallest concentration in the dilution series that meets the test's criterion for growth inhibition. Regarding “23-C-methylmycaminosyl tylonolide diethylacetal [2(2)]”, the MIC in the experiment on B. Subtilis NRRL B-558 is 0.78 µg/mL; with Kl. pnueroniae PCI-602, 3.12 µg/mL; in the experiment on M. luteus PCI 1001, less than 0.2 µg/mL; with Pseud. aeruginosa A3 (Pseud. aeruginosa A3), 12.5 µg/mL; in the experiment with Sal.entiritidis 1891, 3.12 µg/mL; with Staph. aureus Smith, 1.56 µg/mL.

In the case of `CCC1OC(=O)CC(O)C(C)C(OC2OC(C)C(O)C(N(C)C)C2O)C(CC=O)CC(C)C(=O)/C=C/C(C)=C/C1C(C)O` (single isomer, unassigned) [1(3), 23-C-methylmycaminosyl tylonolide], the MIC in the experiment with B. Subtilis NRRL B-558 (setting [1]) was 0.78 µg/mL (≈ 1.27 µM); in the experiment on Kl. pnueroniae PCI-602 (read-out: MIC), 3.12 µg/mL (≈ 5.1 µM); with M. luteus PCI 1001 (setting [2]), less than 0.2 µg/mL; in the experiment on Pseud. aeruginosa A3 (setting [3]), 12.5 µg/mL (≈ 20.4 µM); with Sal.entiritidis 1891 (read-out: MIC), 3.12 µg/mL (≈ 5.1 µM); in the experiment with Staph. aureus Smith (setting [4]), 1.56 µg/mL (≈ 2.55 µM).

On to `CCC(O)C1/C=C(C)/C=C/C(=O)C(C)CC(CC=O)C(OC2OC(C)C(O)C(N(C)C)C2O)C(C)C(O)CC(=O)OC1CC` (single isomer, unassigned) [4(2), 23-C-ethylmycaminosyl tylonolide], for which the MIC in the experiment with B. Subtilis NRRL B-558 (setting [1]) was 0.39 µg/mL (≈ 0.623 µM); in the experiment on Kl. pnueroniae PCI-602 (read-out: MIC), 6.25 µg/mL (≈ 9.99 µM); in the experiment on M. luteus PCI 1001 (setting [2]), less than 0.2 µg/mL; with Pseud. aeruginosa A3 (setting [3]), 6.25 µg/mL (≈ 9.99 µM); with Sal.entiritidis 1891 (read-out: MIC), 3.12 µg/mL (≈ 4.99 µM); with Staph. aureus Smith (setting [4]), 0.78 µg/mL (≈ 1.25 µM).

With `C=CCC(O)C1/C=C(C)/C=C/C(=O)C(C)CC(CC=O)C(OC2OC(C)C(O)C(N(C)C)C2O)C(C)C(O)CC(=O)OC1CC` (single isomer, unassigned) [8"F, 23-C-(2-propenyl)mycaminosyl tylonolide], the MIC with B. Subtilis NRRL B-558 (setting [1]) was 0.39 µg/mL (≈ 0.611 µM); in the experiment on Kl. pnueroniae PCI-602 (read-out: MIC), 3.12 µg/mL (≈ 4.89 µM); in the experiment on M. luteus PCI 1001 (setting [2]), less than 0.2 µg/mL; in the experiment with Pseud. aeruginosa A3 (setting [3]), 6.25 µg/mL (≈ 9.8 µM); in the experiment with Sal.entiritidis 1891 (read-out: MIC), 3.12 µg/mL (≈ 4.89 µM); in the experiment on Staph. aureus Smith (setting [4]), less than 0.2 µg/mL.

In the case of `C=CC(O)C1/C=C(C)/C=C/C(=O)C(C)CC(CC=O)C(OC2OC(C)CC(N(C)C)C2O)C(C)C(O)CC(=O)OC1CC` (single isomer, unassigned) [10"F, 4'-deoxy-23-C-vinylmycaminosyl tylonolide], the MIC was 0.39 µg/mL (≈ 0.642 µM) in the experiment with B. Subtilis NRRL B-558 (setting [1]); 3.12 µg/mL (≈ 5.13 µM) with Kl. pnueroniae PCI-602 (read-out: MIC); less than 0.2 µg/mL in the experiment on M. luteus PCI 1001 (setting [2]); 3.12 µg/mL (≈ 5.13 µM) in the experiment on Sal.entiritidis 1891 (read-out: MIC); 0.78 µg/mL (≈ 1.28 µM) in the experiment with Staph. aureus Smith (setting [4]).

For the compound `C#CC(O)C1/C=C(C)/C=C/C(=O)C(C)CC(CC=O)C(OC2OC(C)CC(N(C)C)C2O)C(C)C(O)CC(=O)OC1CC` (single isomer, unassigned) [12"F, 4'-deoxy-23-C-ethinylmycaminosyl tylonolide], the MIC in the experiment with B. Subtilis NRRL B-558 (setting [1]) was 0.78 µg/mL (≈ 1.29 µM); in the experiment on Kl. pnueroniae PCI-602 (read-out: MIC), 1.56 µg/mL (≈ 2.58 µM); in the experiment on M. luteus PCI 1001 (setting [2]), less than 0.2 µg/mL; with Pseud. aeruginosa A3 (setting [3]), 3.12 µg/mL (≈ 5.15 µM); in the experiment with Sal.entiritidis 1891 (read-out: MIC) it was 3.12 µg/mL (≈ 5.15 µM); in the experiment with Staph. aureus Smith (setting [4]), 0.78 µg/mL (≈ 1.29 µM).

`CCC1OC(=O)CC(O)C(C)C(OC2OC(C)CC(N(C)C)C2O)C(CC=O)CC(C)C(=O)/C=C/C(C)=C/C1C(C)O` (single isomer, unassigned) [Example 5(2), 4'-deoxy-23-C-methylmycaminosyl tylonolide]: the MIC in the experiment with B. Subtilis NRRL B-558 (setting [1]) is 0.39 µg/mL (≈ 0.655 µM); in the experiment with Kl. pnueroniae PCI-602 (read-out: MIC), 1.56 µg/mL (≈ 2.62 µM); with M. luteus PCI 1001 (setting [2]), less than 0.2 µg/mL; with Pseud. aeruginosa A3 (setting [3]), 25 µg/mL (≈ 42 µM); in the experiment with Sal.entiritidis 1891 (read-out: MIC), 3.12 µg/mL (≈ 5.24 µM); in the experiment with Staph. aureus Smith (setting [4]) it was 0.39 µg/mL (≈ 0.655 µM).

Turning to `CCC1OC(=O)CC(O)C(C)C(OC2OC(C)CC(N(C)C)C2O)C(CC=O)CC(C)C(=O)/C=C/C(C)=C/C1C(C)O` (single isomer, unassigned) [Example 6, 4'-deoxy-23-C-methymycaminosyl tylonolide], the MIC against B. Subtilis NRRL B-558 is 0.39 µg/mL (≈ 0.655 µM); with Kl. pnueroniae PCI-602 it was 3.12 µg/mL (≈ 5.24 µM); with M. luteus PCI 1001, less than 0.2 µg/mL; with Pseud. aeruginosa A3 (Pseud. aeruginosa A3), 12.5 µg/mL (≈ 21 µM); in the experiment with Sal.entiritidis 1891 it was 3.12 µg/mL (≈ 5.24 µM); with Staph. aureus Smith, 0.39 µg/mL (≈ 0.655 µM).

For the compound `C#CC(O)C1C=C(C)C=CC(=O)C(C)CC(CC=O)C(OC2OC(C)C(O)C(N(C)C)C2O)C(C)C(O)CC(=O)OC1CC` (centres unmarked) [11"F, 23-C-ethinylmycaminosyl tylonolide], the MIC with B. Subtilis NRRL B-558 was 3.12 µg/mL (≈ 5.02 µM); against Kl. pnueroniae PCI-602, 3.12 µg/mL (≈ 5.02 µM); in the experiment with M. luteus PCI 1001, less than 0.2 µg/mL; in the experiment with Pseud. aeruginosa A3 (Pseud. aeruginosa A3) it was 6.25 µg/mL (≈ 10.1 µM); against Sal.entiritidis 1891, 3.12 µg/mL (≈ 5.02 µM); against Staph. aureus Smith it was 1.56 µg/mL (≈ 2.51 µM).

On to `CC[C@H]1OC(=O)C[C@@H](O)[C@H](C)[C@@H](O[C@@H]2O[C@H](C)C[C@H](N(C)C)[C@H]2O)[C@@H](CC=O)C[C@@H](C)C(=O)/C=C/C(C)=C/[C@@H]1CO` [DT, 4'deoxy mycaminosyl/ tylonolide, reference compound], for which the MIC in the experiment on B. Subtilis NRRL B-558 is 1.56 µg/mL (≈ 2.68 µM); with Kl. pnueroniae PCI-602, 1.56 µg/mL (≈ 2.68 µM); in the experiment with M. luteus PCI 1001 it was less than 0.2 µg/mL; with Pseud. aeruginosa A3 (Pseud. aeruginosa A3), 12.5 µg/mL (≈ 21.5 µM); against Sal.entiritidis 1891, 1.56 µg/mL (≈ 2.68 µM); against Staph. aureus Smith, 0.39 µg/mL (≈ 0.67 µM).

Take `CC[C@H]1OC(=O)C[C@@H](O)[C@H](C)[C@@H](O[C@@H]2O[C@H](C)[C@@H](O)[C@H](N(C)C)[C@H]2O)[C@@H](CC=O)C[C@@H](C)C(=O)/C=C/C(C)=C/[C@@H]1CO` [MT, mycaminosyl tylonolide]: the MIC with B. Subtilis NRRL B-558 was 3.12 µg/mL (≈ 5.22 µM); in the experiment on Kl. pnueroniae PCI-602 it was 3.12 µg/mL (≈ 5.22 µM); in the experiment on M. luteus PCI 1001 it was less than 0.2 µg/mL; in the experiment on Pseud. aeruginosa A3 (Pseud. aeruginosa A3) it was 25 µg/mL (≈ 41.8 µM); with Sal.entiritidis 1891, 3.12 µg/mL (≈ 5.22 µM); in the experiment with Staph. aureus Smith, 1.56 µg/mL (≈ 2.61 µM).
